Source: US9707267B2, “Beta-turn peptidomimetic cyclic compounds for treating dry eye” (Mimetogen Pharmaceuticals, Inc., priority 2008, dated 2017)

Key:
[1] = tested on: rat conjunctival goblet cells; experiment: Glycoconjugate secretion from rat conjunctival goblet cells, ELLA (Example 1); format: cell-based; settings: 2 hours, mean±sem
Experimental: Cells derived from the explants were grown in RPMI 1640 supplemented with 10% fetal bovine serum (FBS) and penicillin (100 U/mL)/streptomycin (100 μg/mL) at 37° C. in a humidified 5% CO2-atmosphere for seventy-two hours. Contaminating nongoblet cells were removed by scraping them from the plate. During this time, goblet cells migrated from the pieces and began to proliferate. After one week, the goblet cells were trypsinized and plated in twenty-four well culture plates with RPMI-1640 media supplemented with 10% FBS.
To measure glycoconjugate secretion, the conjunctival goblet cells were grown to confluence and were serum deprived for two hours before addition of nerve growth factor (NGF), carbachol (Cch), compound D3, compound 3Aa and compound 3Ak for two hours. Compounds D3, 3Aa and 3Ak were administered at concentrations of 30 μm (micromolar), 10 μM, 1 μM and 0.3 μM. The vehicle used to dissolve the compounds, dimethyl sulfoxide (DMSO) was also included. DMSO was used as the basal control for the 30 μM concentration of compound, which was at 0.1% (v/v). The cholinergic agonist carbachol (Cch), added at 100 μM (micromolar), was a positive control for glycoconjugate secretion. The amount of glycoconjugate secreted into the media was measured by enzyme-linked lectin assay (ELLA). The media were collected and analyzed for amount of the lectin-detectable glycoconjugates, including mucins. The amount of secretion was measured by using the lectin UEA-I which is specific for rat conjunctival goblet cell mucins. Biotinylated UEA-I lectin and alkaline phosphatase-labeled streptavidin were used as described in Rios, J. D., et al., “Role of Neurotrophins and Neurotrophin Receptors in Rat Conjunctival Goblet Cell Secretion and Proliferation, Ophthalmology & Visual Science, 48: 1543-1551 (2007), the entire content of which is incorporated herein by reference. The cells were removed and sonicated, and the cell homogenate was analyzed for the total amount of protein by using the Bradford protein assay. […] Glycoconjugate secretion was expressed as the increase (x-fold) over basal.
Data for CGC glycoconjugate secretion and proliferation were expressed as the increase (x-fold) above basal value, which was standardized to 1.0. For example, for the 0.3 μM (micromolar), 1 μM and 10 μM doses, the CGC glycoconjugate secretion and proliferation were expressed as test compound over untreated cells. For the 30 μM dose, the CGC glycoconjugate secretion and proliferation were expressed as test compound over DMSO untreated cells. Results are expressed as the mean±sem.

[2] = tested on: cultured rat conjunctival goblet cells; experiment: Goblet cell glycoconjugate secretion, ELLA with UEA-1 (Example 2); format: cell-based; settings: 2 hours; for Glycoconjugate Secretion, Mean ± sem: mean of rats; for Glycoconjugate Secretion, Mean ± SD: mean of rats/plates
Experimental: The culturing of conjunctival goblet cells from explant cultures was as previously described in Shatos, M. et al., “Isolation, Characterization, and Propagation of Rat Conjunctival Goblet Cells In Vitro,” IOVS 42:1455-1464 (2001), the entire content of which is incorporated herein by reference. The tissue was finely minced and individual pieces were anchored onto scored 6-well cultures dishes in 0.5 mL of complete RPMI-1640 (supplemented with 10% FBS, 2 mM glutamine and 100 μg/mL penicillin-streptomycin) and incubated at 37° C. in a humidified 5% CO2-atmosphere. Explant cultures were refed every 2 days. Within a few days, goblet cells migrated from the pieces and began to proliferate. After approximately one week, the tissue plugs were removed and the goblet cells were allowed to grow to confluence. Cells were passaged once by trypsinization of adherent cells with 0.05% trypsin-0.53 mM EDTA (pH 7.4), and plated in 8-well Laboratory Tek chamber slides (histochemistry) or in 96 well (proliferation), 24 well (secretion), or 6 well (western blots) culture plates with complete RPMI-1640 media.
To measure cell secretion, goblet cells were grown to confluence and then serum depleted for 2 hours prior to stimulation. Cells were incubated with compound D3 at 2, 10, and 50 μM, NGF at 0.1, 1 and 10 nM, and PMA at 0.1, 1, and 10 nM in serum-free RPMI for 2 hours. Goblet cell secretion was measured using an enzyme-linked lectin assay (ELLA). Briefly, an aliquot of the cell culture supernatant was transferred to a 96-well polystyrene microtiter plate in triplicate (Corning Life Sciences #2592, Fisher Scientific, Nepean, Ont). A dilution series of bovine submaxillary mucin (BSM) (Sigma, St. Louis, Mo.) was included on each plate as the standard (standard curve data and data showing that detection of BSM is linear between 0.003 and 0.1 μg not shown). The plates were coated by evaporation at 37° C. overnight. After, the plates were washed three times with wash buffer [PBS containing 0.3% BSA, 0.05% Tween-20] then blocked for nonspecific binding with PBS containing 3% BSA and 0.05% Tween-20 at 37° C. for 1 hour. The wells were rinsed three times in wash buffer, and then incubated in 2 μg/mL biotinylated UEA-1 diluted in wash buffer (Vector Labs, Burlingame, Calif.) at 37° C. for 1 hour. The wells were rinsed three times in wash buffer, and then incubated in 1 μg/mL HRP-conjugated neutravidin diluted in wash buffer (Pierce, Rockford, Ill.) at 37° C. for 1 hour. After the wells were rinsed three times in wash buffer, the color development was performed with TMB (Promega, Madison, Wis.) and stopped with 0.5N Sulfuric acid. The absorbance was read at 450 nm on a Benchmark Plus (Biorad). The goblet cells remaining in the culture wells were either scraped in RIPA buffer [1% TritonX-100, 20 mM Tris-HCl pH 7.5, 150 mM NaCl, 1.5 mM MgCl2, 1% Na deoxycholate, 1 mM EGTA, 1 mM EDTA, 0.1% SDS, 10% glycerol, 1 mM Na vanadate, 10 mM Na fluoride, 10 mM Na pyrophosphate, complete mini EDTA-free protease inhibitors (Roche Applied Science, Indianapolis, Ind.)] or 1M Tris-buffer (pH 7.5), collected and sonicated. The amount of protein in the cell homogenate was analyzed using the Bradford protein assay kit using a dilution series of bovine serum albumin (BSA) as the standard (BioRad, Montreal, PQ). Glycoconjugate secretion was normalized to total protein in the homogenate. Data was then expressed as fold increase above basal. […]

p42/44 MAPK = experiment: Activation of p42/44 MAPK in goblet cells, Western blot (Example 2); format: cell-based, rat; settings: 100 nM, 5 minutes, positive control
Experimental: The activation of p42/44 MAPK was examined using Western blot techniques. Goblet cells were serum starved in serum-free RPMI for 4-6 hrs prior to the addition of PMA (100 nM), NGF (1 or 10 nM), or MIM-D3 (10 or 50 μM) for 5 minutes at 37° C. After, cells were rinsed once in cold PBS, scraped in 100 μL of 1×SDS-PAGE sample buffer [62.5 mM Tris-HCl pH 6.8, 10% glycerol, 2% SDS, 5% β-mercaptoethanol, 0.02 mg/mL bromophenol blue] and sonicated for 20 minutes. The homogenates were centrifuged at 14,900 g for 15 min at 4° C. Proteins in a […] of the supernatant were separated by SDS-PAGE (8% acrylamide gels) and transferred to nitrocellulose membranes. The membranes were blocked for 2 hours in 5% non-fat dried milk in buffer containing 20 mM Tris-HCl, pH 8.0, 150 mM NaCl, and 0.01% Tween-20 (TBST). The blots were then probed with an antibody directed against the phosphorylated form of MAPK1/2 (Calbiochem, San Diego, Calif.) at 0.1 μg/mL in TBST containing 5% BSA overnight at 4° C., followed by a 1 hour incubation in HRP-conjugated secondary anti-mouse antibody (Sigma, St. Louis, Mo.) at room temperature in TBST containing 5% non-fat dried milk. Immunoreactive bands were visualized using the enhanced chemiluminescence method (Perkin Elmer, Waltham, Mass.). The blots were stripped at 55° C. for 30 minutes in stripping buffer [62.5 mM Tris-HCl pH 6.8, 2% SDS, 0.1M β-mercaptoethanol] followed by re-probing with an antibody directed against actin (1:5000 dilution, Sigma, St. Louis, Mo.) in TBST containing 5% non-fat dried milk and incubation in HRP-conjugated secondary anti-rabbit antibody. The immunoreactive bands were digitally scanned on an EPSON scanner and analyzed using NIH ImageJ v1.38x. The amount of phosphorylated MAPK in each sample was standardized to the amount of total actin protein in the sample.
To determine if compound D3 and NGF induced glycoconjugates secretion via activation of the MAPK pathway, cultured goblet cells from 3 independent rats were stimulated by 10 and 50 μM compound D3, 1 and 10 nM NGF or PMA (100 nM, the positive control) for 5 minutes and MAPK activity was measured by western blot analysis. A representative western blot from 3 independent rat goblet cell cultures is shown in FIG. 9, and the quantification is shown in FIG. 10. There was a statistically significant effect of treatment on MAPK activation (P<0.0001). Compound D3 increased MAPK activity above basal by 2.5±0.3 fold at 10 μM and 2.2±0.5 fold at 50 μM and NGF increased MAPK activity by 2.8±0.5 at 1 nM (P<0.05) and 1.7±0.2 at 10 nM.

Structure (SMILES): C[N+](C)(C)CCOC(N)=O [Cch, carbachol, reference compound]
- CGC glycoconjugate secretion ([1]; 100 μM, positive control): 1.3±0.3 fold above basal

Structure (SMILES): CC[C@H](C)[C@@H]1NC(=O)c2cc(N)ccc2OCc2ccc(C(N)=O)cc2NC(=O)[C@H](CCCCN)NC1=O [Compound 3Aa]
- CGC glycoconjugate secretion ([1]; 0.3 μM): 2.1±0.3 fold above basal
- CGC glycoconjugate secretion ([1]; 1 μM): 1.6±0.3 fold above basal
- CGC glycoconjugate secretion ([1]; 10 μM): 1.7±0.4 fold above basal
- CGC glycoconjugate secretion ([1]; 30 μM, over DMSO basal): 2.1±0.7 fold above basal

Structure (SMILES): CCCCCCCCCCCCCC(=O)O[C@@H]1[C@@H](C)[C@@]2(O)[C@@H](C=C(CO)C[C@]3(O)C(=O)C(C)=C[C@@H]23)[C@@H]2C(C)(C)[C@]12OC(C)=O [PMA, Phorbol-12-myristate-13-acetate, reference compound]
- Glycoconjugate Secretion ([2]; 0.1 nM, Rat 2): 1.39 Fold increase above basal
- Glycoconjugate Secretion ([2]; 0.1 nM, Rat 2 Plate 2): 3.2 μg glycoconjugate/mg total protein
- Glycoconjugate Secretion ([2]; 0.1 nM, Rat 3): 1.41 Fold increase above basal
- Glycoconjugate Secretion ([2]; 0.1 nM, Rat 3 Plate 1): 6.9 μg glycoconjugate/mg total protein
- Glycoconjugate Secretion, Mean ± sem ([2]; 0.1 nM): 1.40 ± 0.01 Fold increase above basal
- Glycoconjugate Secretion, Mean ± SD ([2]; 0.1 nM): 5.1 ± 2.6 μg glycoconjugate/mg total protein
- Glycoconjugate Secretion ([2]; 1 nM, Rat 1): 1.05 Fold increase above basal
- Glycoconjugate Secretion ([2]; 1 nM, Rat 1 Plate 2): 4.1 μg glycoconjugate/mg total protein
- Glycoconjugate Secretion ([2]; 1 nM, Rat 2): 1.78 Fold increase above basal
- Glycoconjugate Secretion ([2]; 1 nM, Rat 2 Plate 2): 4.1 μg glycoconjugate/mg total protein
- Glycoconjugate Secretion, Mean ± sem ([2]; 1 nM): 1.42 ± 0.37 Fold increase above basal
- Glycoconjugate Secretion, Mean ± SD ([2]; 1 nM): 4.1 ± 0 μg glycoconjugate/mg total protein
- Glycoconjugate Secretion ([2]; 10 nM, Rat 1): 1.56 Fold increase above basal
- Glycoconjugate Secretion ([2]; 10 nM, Rat 1 Plate 1): 11.3 μg glycoconjugate/mg total protein
- Glycoconjugate Secretion ([2]; 10 nM, Rat 1 Plate 2): 3.5 μg glycoconjugate/mg total protein
- Glycoconjugate Secretion ([2]; 10 nM, Rat 2): 1.30 Fold increase above basal
- Glycoconjugate Secretion ([2]; 10 nM, Rat 2 Plate 2): 3.0 μg glycoconjugate/mg total protein
- Glycoconjugate Secretion ([2]; 10 nM, Rat 3): 1.24 Fold increase above basal
- Glycoconjugate Secretion ([2]; 10 nM, Rat 3 Plate 1): 6.1 μg glycoconjugate/mg total protein
- Glycoconjugate Secretion ([2]; 10 nM, Rat 4): 0.85 Fold increase above basal
- Glycoconjugate Secretion ([2]; 10 nM, Rat 4 Plate 2): 8.4 μg glycoconjugate/mg total protein
- Glycoconjugate Secretion, Mean ± sem ([2]; 10 nM): 1.30 ± 0.25 Fold increase above basal
- Glycoconjugate Secretion, Mean ± SD ([2]; 10 nM): 6.5 ± 3.5 μg glycoconjugate/mg total protein
- increase in mucin secretion ([2]; 0.1, 1 and 10 nM, not dose-dependent): ~1.4 fold
- MAPK activity above basal (p42/44 MAPK): 6.1±0.7 fold

Structure (SMILES): N=C(N)NCCC[C@@H]1NC(=O)c2cc(N)ccc2OCc2ccc(C(N)=O)cc2NC(=O)CNC1=O [Compound 3Ak]
- CGC glycoconjugate secretion ([1]; 0.3 μM): 1.4±0.3 fold above basal
- CGC glycoconjugate secretion ([1]; 1 μM): 1.1±0.3 fold above basal
- CGC glycoconjugate secretion ([1]; 10 μM): 1.2±0.1 fold above basal
- CGC glycoconjugate secretion ([1]; 30 μM, over DMSO basal): 1.1±0.3 fold above basal
